Source: patent US4430339A, “Substituted oxiranecarboxylic acids, their preparation and their use as medicaments” (Byk Gulden Lomberg Chemische Fabrik Gesellschaft mit …, priority 1980, dated 1984)
Read-outs that look alike come from different tables or passages of the source.

Experiments:
[1] = system: blood glucose concentration; experiment: Determination of glucose in the blood after a single oral administration (fasted, metabolically healthy rats); set-up: species or system Sprague-Dawley rats; conditions: Rattus norvegicus, read-out: Change in the blood glucose concentration (in %) in vivo (maximum, relative to the control group)
Experimental: Table I reflects investigations of the effect of representative compounds according to the invention on the blood glucose concentration of fasting, metaboically healthy rats. Column A in each case gives the maximum lowering of the blood glucose concentration of rats which have been fasted (in %, relative to the control group) which is observed in the course of 6 hours after single oral administration of 0.6 mmole of substance/kg of body weight. Column B provides data relating to acute toxicity (LD50; mice, peroral administration).
Column A = maximum change in the blood glucose concentration (in %,
relative to the control animals) in vivo in rats which have been fasted a
1. Determination of glucose in the blood after a single oral administration.
Young male Sprague-Dawley rats (body weight: 150 to 200 g) are used. The animals (6 animals per dose) are kept in Makrolon cages with up to 4 animals per cage (ambient temperature: 23° C., relative atmospheric humidity: 55%, fixed day/night rhythm [12/12 hours], standard diet: Altromin®). The rats are deprived of the feed 18 hours before the first sample of blood is taken. Water is available ad libitum. Samples of blood are taken from the postorbital plexus by puncture immediately before and 2, 4 and 6 hours after administration of the substance.
After deproteinization with perchloric acid, the glucose in the blood is determined by means of the enzymatic HK/G-6-PDH method of R. Richterich [Klinische Chemie, Theorie und Praxis, (Clinical Chemistry, Theory and Practice), 3rd edition, 1971, S. Karger Verlag, Zurich-Basle, page 275]. A control group (10 animals, treated with pure solvent) is also investigated in each case for comparison.

in vivo = conditions: mouse, po, mice p.o., observation time 7 days, read-out: Acute toxicity LD50 (converted)
Experimental: Column B provides data relating to acute toxicity (LD50; mice, peroral administration).
2. Determination of the toxicity.
Various doses of the substances (volume: 10 ml/kg) are administered orally by means of a stomach tube. The observation time is 7 days.

[2] = fasted rats, single oral administration of 0.6 mmole/kg, maximum in the course of 6 hours

| SMILES | change in vivo at 600 µmol/kg ([1]; po, 6 h) [%] | change in vivo at 600 µmol/kg [1, 2] [%] | LD50 (in vivo) [mg/kg] |
| --- | --- | --- | --- |
| CCCCNC(=N)NC(=N)N [Serial No. 1, Buformin, reference compound] | -8 |  |  |
| [H]/N=C(/N)N/C(=N/[H])NCCc1ccccc1 [Serial No. 2, Phenformin, reference compound] |  | -6 |  |
| CCOC(=O)C1(CCCC2CCCCC2)CO1 (stereo not shown) [Serial No. 3, 2-(3-Cyclohexylpropyl)-oxirane-2-carboxylic acid ethyl ester] |  | -24 | 1400 |
| CCOC(=O)C1(CCCCCC2CCCCC2)CO1 (stereo not shown) [Serial No. 4, 2-(5-Cyclohexylpentyl)-oxirane-2-carboxylic acid ethyl ester] |  | -48 | 520 |
| CCOC(=O)C1(CCCC2CCCC2)CO1 (stereo not shown) [Serial No. 5, 2-(3-Cyclopentylpropyl)-oxirane-2-carboxylic acid ethyl ester] |  | -15 | 2400 |
| CCOC(=O)C1(CCCCC2CCCC2)CO1 (stereo not shown) [Serial No. 6, 2-(4-Cyclopentylbutyl)-oxirane-2-carboxylic acid ethyl ester] |  | -21 | 1600 |
| CCOC(=O)C1(CCOCCCC2CCCCC2)CO1 (stereo not shown) [Serial No. 7, 2-[2-(3-Cyclohexylpropyloxy)-ethyl]-oxirane-2-carboxylic acid ethyl ester] |  | -30 | 570 |
| CCOC(=O)C1(CCCC2CCCCCC2)CO1 (stereo not shown) [Serial No. 8, 2-(3-Cycloheptylpropyl)-oxirane-2-carboxylic acid ethyl ester] |  | -22 | 790 |
| CCOC(=O)C1(CCCCCC2CCCCCC2)CO1 (stereo not shown) [Serial No. 9, 2-(5-Cycloheptylpentyl)-oxirane-2-carboxylic acid ethyl ester] |  | -18 | 330 |
